Experimental data reported in PubChem BioAssay (NCI).
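Growth conditions: 96-well plates. Treatment: test compound, 48 hours, 5 concentrations. Analysis: linear interpolation between bracketing concentrations; unreached endpoints set to highest concentration. GI50 = concentration required for 50% inhibition of growth. TGI: total growth inhibition.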

Legend:
Experiment in all cases: growth of human tumour cells (NCI), 48 h
A498 renal = system: A498 renal
MDA-MB-435 = system: MDA-MB-435
SN12C renal = system: SN12C renal
ACHN renal = system: ACHN renal
RPMI-8226 leukemia = system: RPMI-8226 leukemia
NCI-H23 lung = system: NCI-H23 lung
NCI/ADR-RES ovarian = system: NCI/ADR-RES ovarian
CAKI-1 renal = system: CAKI-1 renal
SW-620 colon = system: SW-620 colon
CCRF-CEM leukemia = system: CCRF-CEM leukemia
UACC-62 melanoma = system: UACC-62 melanoma
HCT-116 colon = system: HCT-116 colon
A549 NSCLC = system: A549 NSCLC
NCI-H226 lung = system: NCI-H226 lung
KM12 colon = system: KM12 colon
U251 CNS = system: U251 CNS
HT29 colon = system: HT29 colon
MDA-MB-231 breast = system: MDA-MB-231 breast
OVCAR-5 ovarian = system: OVCAR-5 ovarian
HS 578T breast = system: HS 578T breast
SK-MEL-2 melanoma = system: SK-MEL-2 melanoma
LOX IMVI melanoma = system: LOX IMVI melanoma
RXF 393 renal = system: RXF 393 renal
IGROV1 ovarian = system: IGROV1 ovarian
BT-549 breast = system: BT-549 breast
TK-10 renal = system: TK-10 renal
SF-539 CNS = system: SF-539 CNS
SK-OV-3 ovarian = system: SK-OV-3 ovarian
MCF7 breast = system: MCF7 breast
SK-MEL-5 melanoma = system: SK-MEL-5 melanoma
OVCAR-3 ovarian = system: OVCAR-3 ovarian
K-562 leukemia = system: K-562 leukemia
UO-31 renal = system: UO-31 renal
MOLT-4 leukemia = system: MOLT-4 leukemia
HOP-92 NSCLC = system: HOP-92 NSCLC
NCI-H522 lung = system: NCI-H522 lung
PC-3 prostate = system: PC-3 prostate
UACC-257 melanoma = system: UACC-257 melanoma
SNB-19 CNS = system: SNB-19 CNS
COLO 205 colon = system: COLO 205 colon
NCI-H460 lung = system: NCI-H460 lung
OVCAR-8 ovarian = system: OVCAR-8 ovarian
OVCAR-4 ovarian = system: OVCAR-4 ovarian
SR leukemia = system: SR leukemia
SF-268 CNS = system: SF-268 CNS
DU-145 prostate = system: DU-145 prostate
HCC-2998 colon = system: HCC-2998 colon
786-0 renal = system: 786-0 renal
HCT-15 colon = system: HCT-15 colon
SK-MEL-28 melanoma = system: SK-MEL-28 melanoma
SF-295 CNS = system: SF-295 CNS
T-47D breast = system: T-47D breast
SNB-75 CNS = system: SNB-75 CNS
MALME-3M melanoma = system: MALME-3M melanoma
HOP-62 NSCLC = system: HOP-62 NSCLC
HL-60(TB) leukemia = system: HL-60(TB) leukemia

O=c1c2c([nH]c3ccccc13)CCCC2
GI50 (A498 renal): 1.74 µM
TGI (A498 renal): 55.8 µM
GI50 (MDA-MB-435): > 100 µM
TGI (MDA-MB-435): > 100 µM
GI50 (SN12C renal): > 100 µM
TGI (SN12C renal): > 100 µM
GI50 (ACHN renal): > 100 µM
TGI (ACHN renal): > 100 µM
GI50 (RPMI-8226 leukemia): 81.5 µM
TGI (RPMI-8226 leukemia): > 100 µM
GI50 (NCI-H23 lung): > 100 µM
TGI (NCI-H23 lung): > 100 µM
GI50 (NCI/ADR-RES ovarian): > 100 µM
TGI (NCI/ADR-RES ovarian): > 100 µM
GI50 (CAKI-1 renal): > 100 µM
TGI (CAKI-1 renal): > 100 µM
GI50 (SW-620 colon): > 100 µM
TGI (SW-620 colon): > 100 µM
GI50 (CCRF-CEM leukemia): > 100 µM
TGI (CCRF-CEM leukemia): > 100 µM
GI50 (UACC-62 melanoma): > 100 µM
TGI (UACC-62 melanoma): > 100 µM
GI50 (HCT-116 colon): > 100 µM
TGI (HCT-116 colon): > 100 µM
GI50 (A549 NSCLC): > 100 µM
TGI (A549 NSCLC): > 100 µM
GI50 (NCI-H226 lung): > 100 µM
TGI (NCI-H226 lung): > 100 µM
GI50 (KM12 colon): > 100 µM
TGI (KM12 colon): > 100 µM
GI50 (U251 CNS): > 100 µM
TGI (U251 CNS): > 100 µM
GI50 (HT29 colon): > 100 µM
TGI (HT29 colon): > 100 µM
GI50 (MDA-MB-231 breast): > 100 µM
TGI (MDA-MB-231 breast): > 100 µM
GI50 (OVCAR-5 ovarian): > 100 µM
TGI (OVCAR-5 ovarian): > 100 µM
GI50 (HS 578T breast): > 100 µM
TGI (HS 578T breast): > 100 µM
GI50 (SK-MEL-2 melanoma): 60.4 µM
TGI (SK-MEL-2 melanoma): > 100 µM
GI50 (LOX IMVI melanoma): > 100 µM
TGI (LOX IMVI melanoma): > 100 µM
GI50 (RXF 393 renal): > 100 µM
TGI (RXF 393 renal): > 100 µM
GI50 (IGROV1 ovarian): > 100 µM
TGI (IGROV1 ovarian): > 100 µM
GI50 (BT-549 breast): > 100 µM
TGI (BT-549 breast): > 100 µM
GI50 (TK-10 renal): > 100 µM
TGI (TK-10 renal): > 100 µM
GI50 (SF-539 CNS): > 100 µM
TGI (SF-539 CNS): > 100 µM
GI50 (SK-OV-3 ovarian): > 100 µM
TGI (SK-OV-3 ovarian): > 100 µM
GI50 (MCF7 breast): > 100 µM
TGI (MCF7 breast): > 100 µM
GI50 (SK-MEL-5 melanoma): 45.3 µM
TGI (SK-MEL-5 melanoma): > 100 µM
GI50 (OVCAR-3 ovarian): > 100 µM
TGI (OVCAR-3 ovarian): > 100 µM
GI50 (K-562 leukemia): > 100 µM
TGI (K-562 leukemia): > 100 µM
GI50 (UO-31 renal): 49.7 µM
TGI (UO-31 renal): > 100 µM
GI50 (MOLT-4 leukemia): > 100 µM
TGI (MOLT-4 leukemia): > 100 µM
GI50 (HOP-92 NSCLC): 78.4 µM
TGI (HOP-92 NSCLC): > 100 µM
GI50 (NCI-H522 lung): > 100 µM
TGI (NCI-H522 lung): > 100 µM
GI50 (PC-3 prostate): > 100 µM
TGI (PC-3 prostate): > 100 µM
GI50 (UACC-257 melanoma): > 100 µM
TGI (UACC-257 melanoma): > 100 µM
GI50 (SNB-19 CNS): > 100 µM
TGI (SNB-19 CNS): > 100 µM
GI50 (COLO 205 colon): > 100 µM
TGI (COLO 205 colon): > 100 µM
GI50 (NCI-H460 lung): > 100 µM
TGI (NCI-H460 lung): > 100 µM
GI50 (OVCAR-8 ovarian): > 100 µM
TGI (OVCAR-8 ovarian): > 100 µM
GI50 (OVCAR-4 ovarian): 37 µM
TGI (OVCAR-4 ovarian): > 100 µM
GI50 (SR leukemia): > 100 µM
TGI (SR leukemia): > 100 µM
GI50 (SF-268 CNS): > 100 µM
TGI (SF-268 CNS): > 100 µM
GI50 (DU-145 prostate): > 100 µM
TGI (DU-145 prostate): > 100 µM
GI50 (HCC-2998 colon): > 100 µM
TGI (HCC-2998 colon): > 100 µM
GI50 (786-0 renal): > 100 µM
TGI (786-0 renal): > 100 µM
GI50 (HCT-15 colon): > 100 µM
TGI (HCT-15 colon): > 100 µM
GI50 (SK-MEL-28 melanoma): > 100 µM
TGI (SK-MEL-28 melanoma): > 100 µM
GI50 (SF-295 CNS): > 100 µM
TGI (SF-295 CNS): > 100 µM
GI50 (T-47D breast): > 100 µM
TGI (T-47D breast): > 100 µM
GI50 (SNB-75 CNS): > 100 µM
TGI (SNB-75 CNS): > 100 µM
GI50 (MALME-3M melanoma): > 100 µM
TGI (MALME-3M melanoma): > 100 µM
GI50 (HOP-62 NSCLC): > 100 µM
TGI (HOP-62 NSCLC): > 100 µM
GI50 (HL-60(TB) leukemia): > 100 µM
TGI (HL-60(TB) leukemia): > 100 µM
